From PMC11008251, “Distribution of 2,2′,5,5′-Tetrachlorobiphenyl (PCB52) Metabolites in Adolescent Rats after Acute Nose-Only Inhalation Exposure” (Environmental Science & Technology, 2024)
Read-outs that look alike come from different tables or passages of the source.

Key:
[1] = PCB52 and monohydroxylated metabolite tissue levels by GC-MS/MS after 4 h nose-only inhalation; assay type: in vivo, Sprague–Dawley rats; settings: Sprague-Dawley, rat, inhaled
Procedure: PCB52 vapor for the animal exposure was generated using a published protocol.[12] Briefly, 450 g of 3 mm diameter glass beads were added to a solution of 1.5 g of PCB52 in dichloromethane. The glass beads were then coated with PCB52 by evaporating dichloromethane in a water bath at 29 °C using a rotary evaporator (Buchi Rotavapor R-200, New Castle, DE) under reduced pressure. For the animal exposures, high-efficiency particulate air (HEPA)-filtered laboratory air was passed through the PCB52-coated glass beads at a flow rate of 12 L/min to expose animals to PCB52 vapor in a nose-only exposure apparatus (Figure 1A). The flask of PCB52-coated beads and mixing chamber were kept at 25.0 °C using a precision water bath to facilitate the volatilization of PCB52. The PCB52-laden air was passed through a mixing chamber and distributed to the nose-only inhalation apparatus at a flow rate of 4 L/min per tower (n = 3) and a sampling cartridge filled with 10 g of Amberlite XAD-2 polymeric absorbent resin (Sigma-Aldrich, St. Louis, MO) at a flow rate of 2 L/min. The specified flow rates were generated using flow meter-regulated pumps. The XAD-2 cartridge was used to capture PCB52 vapor to characterize the exposure atmosphere. A sham exposure group was exposed in parallel to HEPA-filtered clean air in an identical nose-only exposure system in an adjacent lab with no supplied PCB52.
The Institutional Animal Care and Use Committee of the University of Iowa approved all of the animal protocols. Animals were housed in a temperature- and humidity-controlled room (21 °C, 55% relative humidity) with a 12 h light/dark cycle in an Association for the Assessment and Accreditation of Laboratory Animal Care (AAALAC) accredited animal facility. Animals were provided with food (sterile Teklad 5% stock diet, Harlan, Madison, WI) and water ad libitum throughout the study. Thirty-six male and female Sprague–Dawley rats (7 weeks of age; Charles River, Wilmington, MA) were allowed to acclimate to the animal facility for 8 days after arrival. Prior to exposure, rats (227 ± 27 and 197 ± 13 g, male and female, respectively) were randomly assigned to the exposure groups (n = 6 per group) using a random number generated (Excel, version 2307). Animals were simultaneously exposed for 4 h to a low or high concentration of PCB52-laden per sex) or filtered lab air (Figure 1A). Exposure duration was limited to 4 h along with scheduled training days (30 min at 55 days of age and 2 h at 56 days of age) to acclimate animals and minimize stress. […] Animal exposure occurred for 4 h at 57 days of age. Rats are considered adolescents at this age.[38] Serum was collected immediately after the animals were removed from the nose-only apparatus by cardiac puncture under isoflurane anesthesia. Rats were perfused with saline, and organs were excised and stored at −80 °C. Body and organ weights, including brain, lungs, and thymus, were not altered by PCB52 inhalation regardless of sex or exposure (Tables S2 and S3).
PCB52 and its hydroxylated metabolites were extracted from tissues, serum, and cecum and intestinal content using a published protocol;[40],[41] see the Supporting Information. Briefly, PCB52 and its metabolites were extracted from homogenates by liquid–liquid extraction and cleaned by solid-phase extraction with acidified silica gel. PCB52 and metabolites were quantified in the multiple reaction monitoring setting (MRM) on an Agilent 7890 A GC system equipped with an Agilent 7000 Triple Quad and Agilent 7693 autosampler (Agilent Technologies, Santa Clara, CA); see the Supporting Information.
PCB52 and metabolite levels, adjusted for tissue wet weight, are reported as the mean ± standard deviation. Differences in PCB52 and metabolite levels from the GC-MS/MS analysis were analyzed with the Tobit regression model because some measurements are below the detection limit. […]

[2] = design: method as in PMID 36804509; settings: 3 weeks after intraperitoneal administration of PCB52 100 mg/kg bw; cited from earlier work
[3] = design: method as in PMID 23582014; settings: male rats exposed acutely to PCB11 vapors; cited from earlier work
[4] = design: method as in PMID 24275706; settings: cited from earlier work

Oc1cc(Cl)c(-c2cc(Cl)ccc2Cl)cc1Cl [4-OH-PCB52, 2,2′,5,5′-Tetrachlorobiphenyl-4-ol]
concentration at 4 h ([1]; both sexes, brain, irrespective of sex and exposure group, GC-MS/MS, read-out: level in the brain (below the detection limit)): < 0.16 ng/g
concentration at 4 h ([1]; female, adipose, female, high dose, mean, read-out: PCB or metabolite detected level, Adipose): 0.2 ng/g
concentration at 4 h ([1]; female, cecum, female, high dose, mean, read-out: PCB or metabolite detected level, Cecum): 3 ng/g
concentration at 4 h ([1]; female, cecum, female, low dose, mean, read-out: PCB or metabolite detected level, Cecum): 2 ng/g
concentration at 4 h ([1]; female, intestinal content, female, high dose, mean, read-out: PCB or metabolite detected level, Intestinal content): 5 ng/g
concentration at 4 h ([1]; female, intestinal content, female, low dose, mean, read-out: PCB or metabolite detected level, Intestinal content): 4 ng/g
concentration at 4 h ([1]; female, liver, female, high dose, mean, read-out: PCB or metabolite detected level, Liver): 0.2 ng/g
concentration at 4 h ([1]; female, liver, female, low dose, mean, read-out: PCB or metabolite detected level, Liver): 0.2 ng/g
concentration at 4 h ([1]; female, lung, female, high dose, mean, read-out: PCB or metabolite detected level, Lung): 0.2 ng/g
concentration at 4 h ([1]; female, lung, female, low dose, mean, read-out: PCB or metabolite detected level, Lung): 0.1 ng/g
concentration at 4 h ([1]; female, serum, female, high dose, mean, read-out: PCB or metabolite detected level, Serum): 0.1 ng/g
concentration at 4 h ([1]; female, serum, female, low dose, mean, read-out: PCB or metabolite detected level, Serum): 0.4 ng/g
concentration at 4 h ([1]; male, adipose, male, high dose, mean, read-out: PCB or metabolite detected level, Adipose): 0.2 ng/g
concentration at 4 h ([1]; male, cecum, male, high dose, mean, read-out: PCB or metabolite detected level, Cecum): 2 ng/g
concentration at 4 h ([1]; male, cecum, male, low dose, mean, read-out: PCB or metabolite detected level, Cecum): 1 ng/g
concentration at 4 h ([1]; male, intestinal content, male, high dose, mean, read-out: PCB or metabolite detected level, Intestinal content): 0.4 ng/g
concentration at 4 h ([1]; male, liver, male, high dose, mean, read-out: PCB or metabolite detected level, Liver): 0.3 ng/g
concentration at 4 h ([1]; male, liver, male, low dose, mean, read-out: PCB or metabolite detected level, Liver): 0.1 ng/g
concentration at 4 h ([1]; male, lung, male, high dose, mean, read-out: PCB or metabolite detected level, Lung): 0.2 ng/g
concentration at 4 h ([1]; male, lung, male, low dose, mean, read-out: PCB or metabolite detected level, Lung): 0.1 ng/g
concentration at 4 h ([1]; male, serum, male, high dose, mean, read-out: PCB or metabolite detected level, Serum): 0.4 ng/g
concentration at 4 h ([1]; male, serum, male, low dose, mean, read-out: PCB or metabolite detected level, Serum): 0.4 ng/g
detection frequency in the rat brain [2]: 20%

Clc1cccc(-c2cccc(Cl)c2)c1 [PCB11, 3,3′-dichlorobiphenyl]
rank order of tissue levels [3]: lung > serum > liver
time to radioactivity in the systemic circulation ([4]; intratracheally instilled 14C-labeled PCB11): ≤ 12 min
time of highest levels of extractable PCB11 metabolites in the jejunum and ileum ([4]; postexposure): approximately 100 min
